Active and inactive are the calls of the source.
What was measured:
[1] = molecular target: Alkaline phosphatase, tissue-nonspecific isozyme (Homo sapiens, UniProt P05186); experiment: TNAP enzyme inhibition by screening hits, dose response, selectivity assay for mouse IAP inhibitor project, biochemical, human TNAP, uHTS hits (AID 488906); type: functional
[2] = inhibitors of intracellular T. cruzi replication, confirmation, NIH3T3 host cells, beta-gal luminescence (AID 2044); type: functional, cell-based;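 further: intracellular parasites grown in NIH/3T3 mouse fibroblasts as host cells; luminescent beta-galactosidase reporter signal from transgenic T. cruzi replicating inside host cells; inhibitors lower the luminescence signal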
[3] = molecular target: Intestinal-type alkaline phosphatase (Homo sapiens, UniProt P09923); experiment: inhibition of human intestinal alkaline phosphatase – biochemical, dose response (AID 488876); type: functional
[4] = molecular target: Intestinal-type alkaline phosphatase (Mus musculus, UniProt P24822); experiment: PubChem AID 488785; type: functional
[5] = cytotoxicity toward NIH3T3 fibroblasts, dose response, counter-screen, cell-based, ATP luminescence, mouse fibroblasts (AID 2010); type: functional;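 further: cells exposed to compound for about 90 hours before reading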
[6] = molecular target: T1, Dual specificity protein phosphatase 3 (Homo sapiens, UniProt P51452); experiment: VHR1 phosphatase inhibitors, biochemical (AID 1878)
[7] = molecular target: T2, Voltage-gated N-type calcium channel alpha-1B subunit/Amyloid beta A4 precursor protein-binding family A member 1 (Homo sapiens, UniProt Q00975+Q02410); type: protein assay
[8] = molecular target: T2, Voltage-gated N-type calcium channel alpha-1B subunit/Amyloid beta A4 precursor protein-binding family A member 1; type: protein assay; remark: listed apart in the source
[9] = molecular target: T3, Small ubiquitin-related modifier 1 (Homo sapiens, UniProt P63165); experiment: inhibitors of SUMO1 partner interactions, dose response, biochemical, FRET (AID 624383); type: functional; conditions: read-out: IC50_Mean
[10] = molecular target: T3, Small ubiquitin-related modifier 1; experiment: inhibitors of SUMO1 peptide binding, dose response, biochemical, fluorescence polarization, uHTS hits (AID 624382); type: functional; conditions: read-out: IC50_Mean
[11] = molecular target: T1, Dual specificity protein phosphatase 3; experiment: VHR1 phosphatase inhibitors, primary screen, biochemical, absorbance, uHTS (AID 1654)
SUMO-activating enzyme [12] = molecular target: T4, SUMO-activating enzyme (Homo sapiens, UniProt Q9UBT2); experiment: inhibitors of in vitro SUMOylation cascade, primary screen, biochemical, HTRF, uHTS (AID 2006); type: protein-complex assay
[13] = molecular target: Likely tRNA 2'-phosphotransferase (Candida albicans (strain SC5314 / ATCC MYA-2876) (Yeast), UniProt Q5A7N4); experiment: TPT1 tRNA phosphotransferase inhibitors, dose response, biochemical, fluorescence polarization (AID 2160)
SUMO-activating enzyme [14] = molecular target: T4, SUMO-activating enzyme; experiment: SUMOylation inhibitor hit validation, confirmation, SUMOylation inhibitor project, biochemical, AlphaScreen (AID 2018); type: functional
[15] = molecular target: Guanyl-specific ribonuclease T1 (Aspergillus oryzae (strain ATCC 42149 / RIB 40), UniProt P00651); experiment: RNase T1 inhibitors, dose response, counter-screen for TPT1 inhibitor project, biochemical, fluorescence polarization, 1536-well (AID 2167)
[16] = molecular target: T5, Dual specificity protein phosphatase 6 (Rattus norvegicus, UniProt Q64346); experiment: MKP-3 phosphatase inhibitors, primary screen, biochemical, rat enzyme, in vitro (AID 425)
T5 sequence (Q64346 whole entry): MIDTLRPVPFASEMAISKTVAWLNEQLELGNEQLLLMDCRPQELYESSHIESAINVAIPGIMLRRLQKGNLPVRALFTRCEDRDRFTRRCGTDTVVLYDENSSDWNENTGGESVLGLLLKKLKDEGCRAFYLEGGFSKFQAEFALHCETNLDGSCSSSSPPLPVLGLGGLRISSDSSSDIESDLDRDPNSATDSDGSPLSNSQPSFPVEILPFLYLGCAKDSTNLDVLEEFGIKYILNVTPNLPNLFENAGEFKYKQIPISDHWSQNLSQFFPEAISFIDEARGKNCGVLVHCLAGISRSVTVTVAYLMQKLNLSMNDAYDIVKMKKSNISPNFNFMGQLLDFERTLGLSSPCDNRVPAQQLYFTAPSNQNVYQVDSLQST

T1 sequence (P51452 whole entry): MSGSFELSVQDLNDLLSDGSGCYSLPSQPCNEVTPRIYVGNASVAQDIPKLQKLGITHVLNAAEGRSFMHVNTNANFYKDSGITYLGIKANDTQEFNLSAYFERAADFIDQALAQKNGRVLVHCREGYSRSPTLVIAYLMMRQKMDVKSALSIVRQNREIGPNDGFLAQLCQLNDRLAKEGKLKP
T4 sequence (Q9UBE0 whole entry): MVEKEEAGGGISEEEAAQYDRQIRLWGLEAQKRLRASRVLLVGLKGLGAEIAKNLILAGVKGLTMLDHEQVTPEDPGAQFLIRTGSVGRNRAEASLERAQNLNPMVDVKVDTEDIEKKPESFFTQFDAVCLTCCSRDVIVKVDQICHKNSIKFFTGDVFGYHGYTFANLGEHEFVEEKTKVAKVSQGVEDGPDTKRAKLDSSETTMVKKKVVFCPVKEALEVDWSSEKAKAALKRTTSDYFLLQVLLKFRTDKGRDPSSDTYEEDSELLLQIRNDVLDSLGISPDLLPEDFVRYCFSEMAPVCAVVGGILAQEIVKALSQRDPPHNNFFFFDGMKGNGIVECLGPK
T4 sequence (Q9UBT2 whole entry): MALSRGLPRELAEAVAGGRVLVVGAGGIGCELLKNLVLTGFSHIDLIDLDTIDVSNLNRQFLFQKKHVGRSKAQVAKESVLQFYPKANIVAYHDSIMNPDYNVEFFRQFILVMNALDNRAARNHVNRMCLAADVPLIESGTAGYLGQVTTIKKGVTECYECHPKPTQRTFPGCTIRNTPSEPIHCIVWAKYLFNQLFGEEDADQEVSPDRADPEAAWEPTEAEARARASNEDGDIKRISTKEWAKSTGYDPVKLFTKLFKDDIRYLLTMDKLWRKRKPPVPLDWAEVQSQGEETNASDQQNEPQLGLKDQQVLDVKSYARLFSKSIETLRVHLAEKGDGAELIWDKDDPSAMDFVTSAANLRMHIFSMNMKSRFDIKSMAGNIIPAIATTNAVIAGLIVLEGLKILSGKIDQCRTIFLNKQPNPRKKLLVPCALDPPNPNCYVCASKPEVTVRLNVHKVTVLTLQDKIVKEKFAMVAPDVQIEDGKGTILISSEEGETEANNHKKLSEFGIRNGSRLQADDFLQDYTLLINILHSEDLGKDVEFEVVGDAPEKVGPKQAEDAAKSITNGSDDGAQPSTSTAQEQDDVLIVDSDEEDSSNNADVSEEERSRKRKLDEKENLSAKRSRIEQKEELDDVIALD
T3 sequence (P63165 whole entry): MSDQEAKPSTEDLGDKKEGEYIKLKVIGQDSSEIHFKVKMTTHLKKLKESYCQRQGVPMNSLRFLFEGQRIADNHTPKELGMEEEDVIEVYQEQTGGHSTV
T2 sequence (Q00975 whole entry): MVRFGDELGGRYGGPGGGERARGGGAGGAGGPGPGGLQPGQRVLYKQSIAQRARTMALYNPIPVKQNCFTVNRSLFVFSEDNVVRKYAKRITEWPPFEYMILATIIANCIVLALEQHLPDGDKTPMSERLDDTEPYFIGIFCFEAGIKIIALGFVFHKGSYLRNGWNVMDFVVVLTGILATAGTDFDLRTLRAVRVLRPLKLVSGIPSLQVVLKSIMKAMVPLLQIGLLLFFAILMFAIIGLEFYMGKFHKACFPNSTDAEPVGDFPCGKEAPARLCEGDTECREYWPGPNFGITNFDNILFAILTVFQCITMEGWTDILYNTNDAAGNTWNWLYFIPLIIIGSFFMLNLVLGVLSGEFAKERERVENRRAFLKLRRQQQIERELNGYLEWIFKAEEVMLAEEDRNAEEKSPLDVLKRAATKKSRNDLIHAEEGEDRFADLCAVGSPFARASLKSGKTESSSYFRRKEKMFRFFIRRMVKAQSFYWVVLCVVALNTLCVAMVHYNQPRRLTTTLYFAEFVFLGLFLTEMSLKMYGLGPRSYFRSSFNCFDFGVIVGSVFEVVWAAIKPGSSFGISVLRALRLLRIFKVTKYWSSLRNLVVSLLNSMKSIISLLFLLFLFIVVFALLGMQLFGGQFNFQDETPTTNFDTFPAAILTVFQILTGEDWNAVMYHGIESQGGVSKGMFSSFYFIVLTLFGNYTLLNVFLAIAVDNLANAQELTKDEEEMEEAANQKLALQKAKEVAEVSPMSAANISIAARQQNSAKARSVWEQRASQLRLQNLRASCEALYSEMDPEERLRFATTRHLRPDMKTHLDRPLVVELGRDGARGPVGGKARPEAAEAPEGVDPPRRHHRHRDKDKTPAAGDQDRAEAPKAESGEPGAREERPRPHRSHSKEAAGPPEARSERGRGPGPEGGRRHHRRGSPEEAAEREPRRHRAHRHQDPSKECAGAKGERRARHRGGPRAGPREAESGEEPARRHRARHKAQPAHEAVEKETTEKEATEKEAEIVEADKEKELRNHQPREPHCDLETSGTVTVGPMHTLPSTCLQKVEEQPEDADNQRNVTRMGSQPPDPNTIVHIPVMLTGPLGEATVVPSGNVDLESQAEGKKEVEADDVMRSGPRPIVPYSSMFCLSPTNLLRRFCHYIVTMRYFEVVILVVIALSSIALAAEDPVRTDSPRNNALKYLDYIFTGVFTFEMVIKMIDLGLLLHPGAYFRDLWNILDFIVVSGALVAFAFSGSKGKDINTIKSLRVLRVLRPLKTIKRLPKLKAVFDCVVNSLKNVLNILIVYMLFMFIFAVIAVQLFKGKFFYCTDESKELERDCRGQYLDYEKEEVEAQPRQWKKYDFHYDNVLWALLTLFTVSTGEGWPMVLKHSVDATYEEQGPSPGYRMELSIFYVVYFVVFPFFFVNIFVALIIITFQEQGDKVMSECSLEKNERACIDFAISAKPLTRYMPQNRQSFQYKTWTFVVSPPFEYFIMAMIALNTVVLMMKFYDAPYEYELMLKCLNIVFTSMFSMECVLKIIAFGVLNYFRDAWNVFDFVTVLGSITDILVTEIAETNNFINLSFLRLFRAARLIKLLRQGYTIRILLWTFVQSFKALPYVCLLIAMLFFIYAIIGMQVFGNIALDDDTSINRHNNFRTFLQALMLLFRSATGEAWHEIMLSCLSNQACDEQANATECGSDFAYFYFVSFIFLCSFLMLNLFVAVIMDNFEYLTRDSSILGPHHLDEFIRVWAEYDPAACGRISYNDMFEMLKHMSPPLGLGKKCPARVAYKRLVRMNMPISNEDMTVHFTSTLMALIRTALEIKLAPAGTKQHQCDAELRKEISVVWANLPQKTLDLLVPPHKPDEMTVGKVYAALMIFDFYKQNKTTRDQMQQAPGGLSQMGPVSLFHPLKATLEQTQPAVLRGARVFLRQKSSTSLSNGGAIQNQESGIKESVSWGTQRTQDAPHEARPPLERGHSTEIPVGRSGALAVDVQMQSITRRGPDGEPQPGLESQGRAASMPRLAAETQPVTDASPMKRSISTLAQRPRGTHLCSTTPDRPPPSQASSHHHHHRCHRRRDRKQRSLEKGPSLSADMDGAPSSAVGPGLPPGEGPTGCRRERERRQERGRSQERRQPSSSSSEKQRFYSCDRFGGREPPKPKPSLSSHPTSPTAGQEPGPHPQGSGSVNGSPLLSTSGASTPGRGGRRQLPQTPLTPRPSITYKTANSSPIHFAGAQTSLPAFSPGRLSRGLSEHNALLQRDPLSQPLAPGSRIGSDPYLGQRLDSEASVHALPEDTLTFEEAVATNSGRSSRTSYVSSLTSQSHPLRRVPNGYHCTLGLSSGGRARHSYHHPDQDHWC
T2 sequence (Q02410 whole entry): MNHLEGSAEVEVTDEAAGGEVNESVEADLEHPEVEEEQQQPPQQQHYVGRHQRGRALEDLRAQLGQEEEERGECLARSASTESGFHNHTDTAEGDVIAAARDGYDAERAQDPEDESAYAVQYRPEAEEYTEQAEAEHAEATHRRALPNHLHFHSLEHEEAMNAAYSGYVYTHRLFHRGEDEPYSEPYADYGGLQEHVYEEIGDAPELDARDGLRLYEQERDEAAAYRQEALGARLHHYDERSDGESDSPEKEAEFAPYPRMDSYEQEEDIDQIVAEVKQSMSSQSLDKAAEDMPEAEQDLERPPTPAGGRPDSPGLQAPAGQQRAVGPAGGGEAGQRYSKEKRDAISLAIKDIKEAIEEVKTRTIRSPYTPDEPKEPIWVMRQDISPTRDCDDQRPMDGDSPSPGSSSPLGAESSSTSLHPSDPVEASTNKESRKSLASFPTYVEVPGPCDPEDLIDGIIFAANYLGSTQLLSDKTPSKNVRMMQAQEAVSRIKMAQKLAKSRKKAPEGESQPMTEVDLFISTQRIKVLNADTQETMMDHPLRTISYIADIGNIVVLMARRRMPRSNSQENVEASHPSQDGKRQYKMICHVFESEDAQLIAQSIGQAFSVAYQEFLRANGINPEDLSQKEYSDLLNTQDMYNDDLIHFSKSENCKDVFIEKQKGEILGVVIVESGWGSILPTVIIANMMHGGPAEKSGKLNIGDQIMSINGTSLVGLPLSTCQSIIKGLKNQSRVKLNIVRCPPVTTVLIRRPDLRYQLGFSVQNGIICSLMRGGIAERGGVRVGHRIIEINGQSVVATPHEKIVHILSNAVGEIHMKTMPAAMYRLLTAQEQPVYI
Chain of Intestinal-type alkaline phosphatase (Mus musculus, UniProt P24822) (P24822 whole entry): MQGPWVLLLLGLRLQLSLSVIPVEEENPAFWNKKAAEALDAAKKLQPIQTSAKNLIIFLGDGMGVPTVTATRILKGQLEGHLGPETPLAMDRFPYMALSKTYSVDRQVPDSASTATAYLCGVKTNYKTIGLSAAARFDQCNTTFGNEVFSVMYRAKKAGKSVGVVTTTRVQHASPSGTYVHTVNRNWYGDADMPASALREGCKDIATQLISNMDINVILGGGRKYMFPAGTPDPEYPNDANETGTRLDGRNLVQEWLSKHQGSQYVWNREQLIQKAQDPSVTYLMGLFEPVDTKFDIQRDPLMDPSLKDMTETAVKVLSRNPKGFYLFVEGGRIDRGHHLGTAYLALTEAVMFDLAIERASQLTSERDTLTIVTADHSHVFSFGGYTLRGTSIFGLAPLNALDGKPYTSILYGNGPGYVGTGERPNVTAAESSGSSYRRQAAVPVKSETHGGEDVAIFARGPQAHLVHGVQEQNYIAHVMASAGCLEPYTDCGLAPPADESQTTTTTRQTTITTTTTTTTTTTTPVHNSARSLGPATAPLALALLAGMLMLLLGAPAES

| Structure (SMILES) | IC50 [1] | EC50 [2] | IC50 [3] | IC50 [4] | EC50 [5] | IC50 [6] | IC50 [7] | IC50 [8] | IC50 [9] | IC50 [10] | IC50 [11] | IC50 (SUMO-activating enzyme [12]) | IC50 [13] | IC50 (SUMO-activating enzyme [14]) | IC50 [15] | IC50 [16] |
| --- | --- | --- | --- | --- | --- | --- | --- | --- | --- | --- | --- | --- | --- | --- | --- | --- |
| COc1cc(NC(S)=NCCC(c2ccccc2)c2ccccc2)cc(OC)c1 | 12.2 µM (active) | 2.02 µM (active) | > 100 µM (inactive) | 13.7 µM (active) | > 60 µM (not active) |  |  |  |  |  |  |  |  |  |  |  |
| Cc1cc(C)n(Cc2ccc(C(=O)N/N=C/c3ccc(-c4ccc([N+](=O)[O-])cc4)o3)o2)n1 |  |  |  |  |  | 6.64 µM (active) | 20.2 µM (active) | 14 µM (active) | 3.17 µM (active) | > 66.6 µM (inactive) | 123 µM (inactive) | 33 µM (active) | 3.55 µM (active) | 5.62 µM (active) | > 55.7 µM (not active) | 40 µM (active) |
